What was measured:
[1] = target: T1, membrane-bound aminopeptidase activity in the CA3 (Rattus norvegicus, UniProt P15684); assay type: biochemical
T1 sequence (P15684 2-965): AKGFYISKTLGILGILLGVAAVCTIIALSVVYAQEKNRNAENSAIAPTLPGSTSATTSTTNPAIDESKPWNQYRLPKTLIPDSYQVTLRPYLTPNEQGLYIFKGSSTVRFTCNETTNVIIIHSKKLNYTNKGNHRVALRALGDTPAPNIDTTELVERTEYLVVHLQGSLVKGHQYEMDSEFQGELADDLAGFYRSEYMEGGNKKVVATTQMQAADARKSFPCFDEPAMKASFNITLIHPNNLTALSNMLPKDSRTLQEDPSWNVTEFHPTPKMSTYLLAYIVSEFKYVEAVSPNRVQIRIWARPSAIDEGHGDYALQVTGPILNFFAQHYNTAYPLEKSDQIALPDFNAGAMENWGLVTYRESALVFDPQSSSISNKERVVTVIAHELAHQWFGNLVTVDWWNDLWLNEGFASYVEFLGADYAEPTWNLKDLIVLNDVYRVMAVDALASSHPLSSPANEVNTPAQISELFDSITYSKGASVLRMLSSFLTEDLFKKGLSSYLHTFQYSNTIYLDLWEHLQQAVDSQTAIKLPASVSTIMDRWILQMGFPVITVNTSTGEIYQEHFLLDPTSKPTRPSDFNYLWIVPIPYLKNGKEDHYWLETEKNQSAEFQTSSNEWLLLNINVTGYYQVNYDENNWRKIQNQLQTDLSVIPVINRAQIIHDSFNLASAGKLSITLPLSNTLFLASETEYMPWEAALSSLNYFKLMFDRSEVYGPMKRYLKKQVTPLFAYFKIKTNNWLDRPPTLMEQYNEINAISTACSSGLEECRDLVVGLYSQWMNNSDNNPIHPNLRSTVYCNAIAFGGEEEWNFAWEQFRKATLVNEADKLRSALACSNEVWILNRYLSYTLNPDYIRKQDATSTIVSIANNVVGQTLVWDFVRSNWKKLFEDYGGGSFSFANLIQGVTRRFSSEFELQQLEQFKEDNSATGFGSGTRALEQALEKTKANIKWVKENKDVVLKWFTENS

[2] = target: puromycin-sensitive aminopeptidase (PSA, EC 3.4.11.14); conditions: cited from earlier work
[3] = target: T2, membrane-bound aminopeptidase activity in the CA1 (Rattus norvegicus, UniProt P15684); assay type: biochemical
T2 sequence (P15684 2-965): T1 sequence (P15684 2-965)

[4] = tested on: ectopeptidases in whole OHSCs; conditions: EO sampling; cited from earlier work
[5] = target: aminopeptidase N (APN, EC 3.4.11.2); conditions: cited from earlier work

Structure (SMILES) | Ki [1] | Ki [2] | Ki [3] | effect on hydrolysis of exogenously applied YGGFL [4] | Ki [5]
CC(C)C[C@H](NC(=O)[C@@H](O)[C@H](N)Cc1ccccc1)C(=O)O [bestatin] | 11 ± 7 µM | 500 nM | 12 ± 9 µM | – | –
COc1ccc(C[C@H](N)C(=O)N[C@H]2[C@@H](O)[C@H](n3cnc4c(N(C)C)ncnc43)O[C@@H]2CO)cc1 [puromycin] | – | 1000 nM | – | little to no effect | 100 µM

From article PMC5862982 (ACS chemical neuroscience, 2017)
